What was measured:
[1] = system: patients with moderate to severe atopic dermatitis; test: Phase II study of oral DS107G: eosinophil concentrations and responders by ethnicity; assay type: in vivo, human; settings: for Patients classified as Responders: IGA 0 or 1 at Week 8 with 2-point decrease
Experimental: The primary endpoint can be translated as a responder analysis where a subject is classified as Responder if he/she achieves an IGA score of 0 (clear) or 1 (almost clear) at Week 8, considering a 2-point decrease from baseline. The comparison between groups for the primary endpoint was done using a Cochran-Mantel-Haenszel test, with site included as a stratification factor. A supportive analysis was performed using a Fisher's exact test. The primary efficacy analysis was done using observed values and a supportive analysis was conducted using the last observation carried forward (LOCF) approach. The analyses was done using the ITT population and served as the primary analysis, while the analysis of the primary endpoint using the PP population was used as a sensitivity analysis.
A surprising discovery was observed when the data was further interrogated.
Eosinophils are a type of white blood cell that play an important role in the body's response to allergic reactions, asthma, and infection with parasites. Eosinophils usually account for less than 7% of the circulating white blood cells (100 to 500 eosinophils per microliter of blood). These cells have a role in the protective immunity against certain parasites but also contribute to the inflammation that occurs in allergic disorders.
FIG. 30A-B. In particular, 56% of DS107-treated African America patients were classified as Responders, versus only 7% of Caucasian patients. FIG. 31A-B. As discussed in detail above, a subject is classified as a Responder if he/she achieves an IGA score of 0 (clear) or 1 (almost clear) at Week 8, considering a 2-point decrease from baseline. FIG. 32 depicts the same data for eosinophil concentrations in all Responders in the total population (FIG. 32A) and for DS107 treated patients (FIG. 32B) and placebo treated patients (FIG. 32C). […] FIG. 33A-C. […] FIGS. 34A-C and FIGS. 35A-C.

[2] = design: species or system human; settings: in vivo
Experimental: A single-center, double-blind, randomized, placebo-controlled, two part Phase one study was performed in healthy male and female subjects aged 18 to 45 years inclusive. The primary objective of this study was to assess the safety and plasma pharmacokinetics (PK) of orally administered single doses and orally administered multiple doses of DS107G capsules (once daily for 28 days) in healthy subjects.
Subjects were randomly assigned in a 3:1 ratio of DG107G to placebo by block randomization. Single dose part one of the study comprised three cohorts of eight subjects each, with the addition of Cohort four based on evaluation of the safety data of Cohort three by the Safety Monitoring Committee (SMC). A single oral dose of DS107G or matching placebo was administered to fasted subjects in Cohorts one to three (500, 1000, and 2000 mg, respectively) in parallel; subjects in Cohort four were administered a dose of 4000 mg following completion of Cohort three. Subjects in Cohort two received 1000 mg or matching placebo in the fed state at ≥14 days after the first dose.
Safety assessments were monitored throughout the study.
In Part one of the study, subjects in Cohorts one to three were administered a single dose of study drug (either 500-, 1000-, or 2000-mg as 500-mg DS107G capsules or matching placebo capsules) in parallel on study Day 1 after at least an 8-hour fast, according to Table 20. Cohort 4 was initiated following the review of safety data from Cohort 3 by the SMC.

Compound: CCCCC/C=C\C/C=C\C/C=C\CCCCCCC(=O)O [DGLA, Dihomo gamma linolenic acid]
- Patients classified as Responders ([1]; African America patients): 56%
- Patients classified as Responders ([1]; Caucasian patients): 7%
- Response rate in subjects having low baseline eosinophil counts ([1]; in vivo): higher response rate
- Linearity of elimination half-life or clearance, free or total DGLA ([2]; human): no evidence of nonlinear pharmacokinetics
- Mean baseline-corrected Cmax and AUC0-24 for free and total DGLA versus dose [2]: increased in a linear manner
